According to ChEMBL document CHEMBL1130210, “Steroidal glycoside cholesterol absorption inhibitors” (1997):

Key:
Cricetinae gen. sp. [1] = test: Compound was tested for its ability to inhibit the intestinal absorption of [3H]cholesterol in cholesterol-fed hamsters at 200 mg/kg dose; format: functional, Cricetulus griseus
Cricetinae gen. sp. [2] = test: Compound was tested for its ability to inhibit the intestinal absorption of [3H]cholesterol in cholesterol-fed hamsters at 5 mg/kg dose; format: functional, Cricetulus griseus
Cricetinae gen. sp. [3] = test: Compound was tested for its ability to inhibit the intestinal absorption of [3H]cholesterol in cholesterol-fed hamsters at 100 mg/kg dose; format: functional, Cricetulus griseus
Cricetinae gen. sp. [4] = test: Compound was tested for its ability to inhibit the intestinal absorption of [3H]cholesterol in cholesterol-fed hamsters at 10 mg/kg dose; format: functional, Cricetulus griseus
Cricetinae gen. sp. [5] = test: Ability to inhibit the intestinal absorption of [3H]cholesterol in cholesterol-fed hamsters; format: functional

SMILES	ED50 (Cricetinae gen. sp. [5])	other results
C[C@@]12CCC[C@H]1[C@@H]1CC[C@H]3C[C@@H](O[C@@H]4O[C@@H](CO)[C@@H](O[C@@H]5O[C@@H](CO)[C@@H](O)[C@H](O)[C@@H]5O)[C@H](O)[C@@H]4O)CC[C@]3(C)[C@H]1CC2		inhibition in vivo at 200 mg/kg (Cricetinae gen. sp. [1]): 37%
C[C@@H]1CC[C@@]2(OC1)OC1CC3C4CC[C@H]5C[C@@H](O[C@@H]6O[C@@H](CO)[C@@H](O[C@@H]7O[C@@H](COC(=O)Nc8c(Cl)cccc8Cl)[C@@H](OC(=O)Nc8c(Cl)cccc8Cl)[C@H](O)[C@@H]7O)[C@H](O)[C@@H]6O)CC[C@]5(C)C4C(=O)C[C@]3(C)C1[C@@H]2C (stereo partly specified)		inhibition in vivo at 5 mg/kg (Cricetinae gen. sp. [2]): 40%
C[C@@H]1CC[C@@]2(OC1)OC1CC3C4CC[C@H]5C[C@@H](O[C@@H]6O[C@@H](COC(=O)Nc7ccc(Cl)cc7)[C@@H](O[C@@H]7O[C@@H](CO)[C@@H](O)[C@H](O)[C@@H]7O)[C@H](O)[C@@H]6O)CC[C@]5(C)C4C(=O)C[C@]3(C)C1[C@@H]2C (stereo partly specified)		inhibition in vivo at 5 mg/kg (Cricetinae gen. sp. [2]): 37%
C[C@]12CC[C@@H]3c4ccc(O[C@@H]5O[C@@H](CO)[C@@H](O[C@@H]6O[C@@H](CO)[C@@H](O)[C@H](O)[C@@H]6O)[C@H](O)[C@@H]5O)cc4CC[C@H]3[C@@H]1CCC2=O		inhibition in vivo at 100 mg/kg (Cricetinae gen. sp. [3]): 14%
C[C@@H]1CC[C@@]2(OC1)OC1C[C@H]3[C@@H]4CC[C@H]5C[C@@H](O[C@@H]6O[C@@H](CO)[C@@H](O[C@@H]7O[C@@H](CO)[C@@H](O)[C@H](O)[C@@H]7O)[C@H](O)[C@@H]6O)CC[C@]5(C)[C@H]4C(=O)C[C@]3(C)C1[C@@H]2C (stereo partly specified)		inhibition in vivo at 10 mg/kg (Cricetinae gen. sp. [4]): 23%
C[C@@H]1CC[C@@]2(OC1)OC1CC3C4CC[C@H]5C[C@@H](O[C@@H]6O[C@@H](CO)[C@@H](O[C@@H]7O[C@@H](COC(=O)Nc8ccccc8F)[C@@H](OC(=O)Nc8ccccc8F)[C@H](O)[C@@H]7O)[C@H](O)[C@@H]6O)CC[C@]5(C)C4C(=O)C[C@]3(C)C1[C@@H]2C (stereo partly specified)	0.025 mg/kg	
CC1CC[C@@]2(OC1)OC1C[C@H]3[C@@H]4CC[C@H]5C[C@@H](OC6OC(CF)C(OC7OC(CF)C(O)C(O)C7O)C(O)C6O)CC[C@]5(C)[C@H]4C(=O)C[C@]3(C)C1[C@@H]2C (stereo partly specified)	0.7 mg/kg	
C[C@@H]1CC[C@@]2(OC1)OC1CC3C4CC[C@H]5C[C@@H](O[C@@H]6O[C@@H](CO)[C@@H](O[C@@H]7O[C@@H](COC(=O)NCc8ccco8)[C@@H](OC(=O)NCc8ccco8)[C@H](O)[C@@H]7O)[C@H](O)[C@@H]6O)CC[C@]5(C)C4C(=O)C[C@]3(C)C1[C@@H]2C (stereo partly specified)	0.3 mg/kg	
C[C@@H]1CC[C@@]2(OC1)OC1CC3C4CC[C@H]5C[C@@H](O[C@@H]6O[C@@H](CO)[C@@H](O[C@@H]7O[C@@H](COC(=O)Nc8ccc(F)cc8F)[C@@H](O)[C@H](O)[C@@H]7O)[C@H](O)[C@@H]6O)CC[C@]5(C)C4C(=O)C[C@]3(C)C1[C@@H]2C (stereo partly specified)	0.25 mg/kg	
CC1CC[C@@]2(OC1)OC1C[C@H]3[C@@H]4CC[C@H]5C[C@@H](OC6OC(C)C(OC7OC(C)C(O)C(O)C7O)C(O)C6O)CC[C@]5(C)[C@H]4C(=O)C[C@]3(C)C1[C@@H]2C (stereo partly specified)	6.5 mg/kg	
C[C@@H]1CC[C@@]2(OC1)O[C@H]1C[C@H]3[C@@H]4CC[C@H]5C[C@@H](O[C@@H]6O[C@@H](CO)[C@@H](O[C@@H]7O[C@@H](CO)[C@@H](O)[C@H](O)[C@@H]7O)[C@H](O)[C@@H]6O)CC[C@]5(C)[C@H]4CC(=O)[C@]3(C)[C@H]1[C@@H]2C [CELLOBIOSYL HECOGENIN]	10 mg/kg	
